Source: US20240084354A1, “MEANS AND METHODS FOR REGULATING INTRACELLULAR TRAFFICKING OF SECRETORY OR CELL MEMBRANE-ANCHORED PROTEINS OF INTEREST” (HONING BIOSCIENCES, priority 2020, published 2024)
“Also recorded” adds a separate entry of the source.

Experiments:
[1] = system: Primary CD8+ T or CD4/CD8+ T cells; test: Flow cytometry of GFP fluorescence in transduced primary T cells; assay type: cell-based, human
Protocol: T cells were isolated from leukocyte reduction system chamber (LRSC) from blood of healthy donors by negative selection using the EasySep Direct Human T cell isolation kit (STEM cells) or MACSxpress LRSC Pan T Cell Isolation Kit, human (Miltenyi) according to the manufacturer's instructions.
Primary CD8^+ T or CD4/CD8^+ T cells were plated into culture plates and transduced with said lentiviral particle at a MOI between 1 and 5 for 3 days.
Primary CD8^+ T or CD4/CD8^+ T cells were plated into culture plates for Flow cytometry assay.
To prevent cytokines released due to the possible presence of biotin in TexMacs buffer, 1 μg/mL of avidin was added to chelate biotin, starting from the day of transduction and following days of cell culture. […]
(§1) After incubation with biotin, the cells were immediately transfer on ice, to inhibit or slow down the traffic of the cargo, followed by centrifugation (300 g, 4° C., 5 minutes), washed twice in cold 1×PBS (300 g, 4° C., 5 minutes) and incubated with live/dead fixable staining (20 minutes, on ice; Thermofisher). The cells were then washed twice in cold PBS (300 g, 4° C., 5 minutes) or FACS buffer (1×PBS, 1% BSA, 0.05% sodium azide, 1 mL EDTA 0.5 M, filtered and kept at 4° C.) and, when not analyzed immediately, the cells were fixed in 3% PFA-1×PBS (10 minutes, RT) and washed twice in 1×PBS.

Jurkat cells = test: Flow cytometry of GFP fluorescence in transduced Jurkat cells; assay type: cell-based
Protocol: Transduced cells either received no treatment or were treated with 40 μM of biotin for 15 minutes, 60-75 minutes or overnight (0/N).
The RPMI medium was supplemented with 14 μg/mL of avidin to chelate the existing biotin present in the medium.
as §1
Transduced cells either received no treatment or were treated with 40 μM of biotin for 6 hours.
Transduction of HEK293FT and Jurkat cells were done using the same volume v/v of particles for each construct increasingly.
The expression of the cytokine was evaluated by measuring GFP using flow cytometry, three days later for HEK293FT and more than six days later for Jurkat cells. […]
For both types of cells, the expression of the cytokine was evaluated by measuring GFP using flow cytometry, 3 days later for HEK293FT and more than 6 days later for Jurkat cells. […]

HeLa cells [2] = test: Western blot (GFP revelation) of cell medium and cell extract of transduced HeLa cells; assay type: cell-based; details: 40 μM biotin, 60 minutes or O/N
Protocol: Cells for western blotting were treated either treated or not with 40 μM biotin or higher for 60 minutes or over-night (0/N).
After biotin treatment, the supernatant was recovered and centrifuged for removal of the detached or dead cells at 300 g, 4° C., for 5-10 minutes and kept on ice. While the cells (defined hereafter as pellet) were incubated with protein loading buffer 1×(5 mM Tris-HCl, pH 7.0, 30 mM ethylenediaminetetra acid (EDTA), pH 8.0; 0.01% bromophenol blue, 5% glycerol) for 5 minutes at room temperature, scratched and transfer to a new tube followed by denaturation at 95-100° C. for 10-20 minutes. The supernatant (from adherent or suspension cells) were incubated with StrataClean Resin (Agilent) to collect and concentrate protein present in the supernatant, for at least 2 hours at 4° C. with orbital agitation. […] Cytokines were detected using monoclonal anti-GFP (1/1000; Roche) in 5% skim milk in 0.1% Tween-20 PBS for 1 hour at room temperature or overnight (0/N) at 4° C., followed by the respective horseradish peroxidase (HRP) conjugated secondary polyclonal antibody (1/15000) in 5% skim milk in 0.1% Tween-20 PBS for 1 hour at room temperature. […]

[3] = system: HEK blue IL-2 reporter cell line; test: Cytokine activity of medium of transduced HeLa cells on reporter cell line HEK blue IL-2; assay type: cell-based; details: no biotin
Protocol: Cells were treated with 40 μM biotin for 0 minute, 15 minutes, 60 minutes, 90 minutes, 120 minutes or 4320 minutes (=72 hours).
After treatment of the cells, the cell medium (1500 μL) was collected and centrifuged (300 g, 4° C., 5-10 minutes) to remove dead cells.
The cell medium of the RUSH-transduced cells was added into a cell culture 96-well plate (flat bottom) at a dilution 1/80 to 1/100 followed by the platting of HEK-Blue cells at approximately 50 000 cells/well. On the next day (after approximately 24 hours), 20 μL of the supernatant of these cells was transferred to a new plate and 180 μL of QUANTI-Blue substrate was added and incubated at 37° C. and 5% of C02 for 1-3 hours. The absorbance was then measured at 620 nm. The response ratio of the cytokines was determined by dividing the value of absorbance of the treated cells by non-treated cells. The values were them normalized to WT cells line.

CTLL-2 NFκB cells = test: IL-2-induced proliferation of CTLL-2 NFκB cells; assay type: cell-based; details: medium of transduced HeLa cells
Protocol: The relative proliferation and NFκB response measured by luminescence in CTLL2 NFκB was determined as described by Mock et al. (2020. Sci Rep. 10(1):3234). Briefly, CTLL2 NFκB were starved for about 24 hours, i.e., incubated for 24 hours without IL-2 to reduce the background due to the presence of IL-2 in the medium. After starvation, the cells (approximately 50 000 cells/well) in a cell culture 96-well plate (flat bottom) were incubated with the supernatant of the transduced cells either non-treated or treated with biotin diluted at 1/80 to a final volume of 200 μL. The cells were incubated for 72 hours at 37° C. and 5% of C02.
For CTLL-2 proliferation, CellTiter 96 Aqueous One Solution (Promega) was used according to the manufacturer's instructions. Briefly, 100 μL of the cells medium were removed and 20 μL of CellTiter 96 Aqueous One Solution (Promega) were added and incubated at least for 1 hours at 37° C. and 5% of CO2 before reading the absorbance at 490 nm. The relative proliferation or luminescence was determined by dividing the absorbance of treated cells by non-treated cells.

HeLa cells [4] = test: Immunofluorescence of transduced HeLa cells (GFP/Cherry staining), with or without biotin; assay type: cell-based; details: 40 μM biotin
Protocol: HeLa cells were plated on a cell culture plate and transduced with said lentiviral particle at a MOI between 1 and 5 for 2 days.
Transduced HeLa cells were plated on coverslip for immunofluorescence assay.
Transduced cells either received no treatment or were treated with 40 μM of biotin.
Cells for immunofluorescence assay were either treated or not with 40 μM or higher of biotin for 15 minutes, 75 minutes or 16 hours (steady-state).
Cells coated onto coverslips were washed once in 1×PBS buffer, fixed in 3% of paraformaldehyde (PFA) for 10-15 minutes at room temperature, then washed twice and alternatively incubated with 50 mM of NH4Cl-1×PBS for 5 minutes at room temperature to quench free aldehydes. The cells were then permeabilized using a solution of PBS containing 0.5% Bovine Serum Albumin (BSA) and 0.05% saponin (Saponin, Sigma-Aldrich) for 15 minutes at room temperature. The coverslips were mounted in Mowiol supplemented with DAPI (4′,6-diamidino-2-phenylindole) for DNA staining.

Substance	GFP-expressing cells upon addition of biotin ([1]; 40 μM biotin)	Efficiency of transduction / T cells expressing the cytokine ([1]; absence of biotin)	GFP upon addition of biotin within 6 hours (flow cytometry) (Jurkat cells; 40 μM biotin, 6 hours)	Intracellular GFP expression without biotin treatment (flow cytometry) (Jurkat cells; no biotin)	Cytokine secretion in cell medium upon biotin addition (western blot) (HeLa cells [2])	Response of the reporter cell line in the absence of biotin [3]	CTLL-2-NFκB cell proliferation after 4320 minutes of biotin (CTLL-2 NFκB cells; biotin 4320 minutes)	CTLL-2-NFκB cell proliferation, biotin for more than 60 minutes (CTLL-2 NFκB cells; biotin more than 60 minutes)	CTLL-2-NFκB cell proliferation in absence of biotin (CTLL-2 NFκB cells; no biotin)	Traffic and secretion of the cytokine upon biotin addition (immunofluorescence) (HeLa cells [4])
CCL5-SBP-eGFPhibit: RUSH system with CCL5 fused to SBP and to eGFP containing HiBit tag (SEQ ID NO: 604) (VSGWRLFKKIS; HiBit tag)	decrease of GFP-expressing cells	6%	showed a decrease in GFP-expressing cells	showed a proper intracellular GFP expression	–	–	–	–	–	–
SPCCL5-IL-2-SBP-eGFP: RUSH system with Interleukin-2 fused to SBP and eGFP using the signal peptide of CCL5 (SEQ ID NO: 603) (MKVSAAALAVILIATALCAPASA; Signal peptide of CCL5)	–	–	–	–	the highest secretion was observed after O/N with biotin	induced a small response by the reporter cell line	seemed to better sustain cell activation	a significant increase in cell proliferation was observed	proliferated	After 15 minutes with biotin treatment, the cytokine was localized in the Golgi; also recorded: at 75 minutes, a high percentage of the cytokine still remained in the Golgi; also recorded: At 4 hours, most of the cytokine had been secreted
